ChEMBL document CHEMBL4507328, “Data for DCP probe BAY-390” (2021)
Calls of active or inactive are those of the source. The rule behind the calls is not given here.

What was measured:
[1] = biological target: Mu-type opioid receptor (Homo sapiens) (UniProt P35372); details: Compound concentration 10.0 uM
[2] = biological target: Short transient receptor potential channel 5 (Homo sapiens, UniProt Q9UL62); experiment: TRP selectivity screen (TRPC5)
[3] = biological target: Delta-type opioid receptor (Homo sapiens) (UniProt P41143); details: Compound concentration 10.0 uM
[4] = biological target: T1, Muscarinic acetylcholine receptor M1 (Homo sapiens) (UniProt P11229); details: Compound concentration 10.0 uM
T1 sequence (whole entry): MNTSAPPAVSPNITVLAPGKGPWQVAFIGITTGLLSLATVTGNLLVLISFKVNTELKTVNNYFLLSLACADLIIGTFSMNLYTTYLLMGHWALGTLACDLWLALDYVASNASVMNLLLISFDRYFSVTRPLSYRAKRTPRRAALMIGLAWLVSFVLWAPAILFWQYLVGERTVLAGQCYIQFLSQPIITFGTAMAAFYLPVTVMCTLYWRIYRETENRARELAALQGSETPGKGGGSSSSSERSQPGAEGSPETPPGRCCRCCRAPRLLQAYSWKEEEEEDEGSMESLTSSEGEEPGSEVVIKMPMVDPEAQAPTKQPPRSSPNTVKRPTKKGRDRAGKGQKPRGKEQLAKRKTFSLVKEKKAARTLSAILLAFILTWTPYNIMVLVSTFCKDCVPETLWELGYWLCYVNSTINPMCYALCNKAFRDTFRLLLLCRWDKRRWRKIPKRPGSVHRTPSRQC

[5] = biological target: Transient receptor potential cation channel subfamily A member 1 (Homo sapiens, UniProt O75762); experiment: FLIPR Ca2+ assay (human […])
Sequence of Transient receptor potential cation channel subfamily A member 1 (O75762 whole entry): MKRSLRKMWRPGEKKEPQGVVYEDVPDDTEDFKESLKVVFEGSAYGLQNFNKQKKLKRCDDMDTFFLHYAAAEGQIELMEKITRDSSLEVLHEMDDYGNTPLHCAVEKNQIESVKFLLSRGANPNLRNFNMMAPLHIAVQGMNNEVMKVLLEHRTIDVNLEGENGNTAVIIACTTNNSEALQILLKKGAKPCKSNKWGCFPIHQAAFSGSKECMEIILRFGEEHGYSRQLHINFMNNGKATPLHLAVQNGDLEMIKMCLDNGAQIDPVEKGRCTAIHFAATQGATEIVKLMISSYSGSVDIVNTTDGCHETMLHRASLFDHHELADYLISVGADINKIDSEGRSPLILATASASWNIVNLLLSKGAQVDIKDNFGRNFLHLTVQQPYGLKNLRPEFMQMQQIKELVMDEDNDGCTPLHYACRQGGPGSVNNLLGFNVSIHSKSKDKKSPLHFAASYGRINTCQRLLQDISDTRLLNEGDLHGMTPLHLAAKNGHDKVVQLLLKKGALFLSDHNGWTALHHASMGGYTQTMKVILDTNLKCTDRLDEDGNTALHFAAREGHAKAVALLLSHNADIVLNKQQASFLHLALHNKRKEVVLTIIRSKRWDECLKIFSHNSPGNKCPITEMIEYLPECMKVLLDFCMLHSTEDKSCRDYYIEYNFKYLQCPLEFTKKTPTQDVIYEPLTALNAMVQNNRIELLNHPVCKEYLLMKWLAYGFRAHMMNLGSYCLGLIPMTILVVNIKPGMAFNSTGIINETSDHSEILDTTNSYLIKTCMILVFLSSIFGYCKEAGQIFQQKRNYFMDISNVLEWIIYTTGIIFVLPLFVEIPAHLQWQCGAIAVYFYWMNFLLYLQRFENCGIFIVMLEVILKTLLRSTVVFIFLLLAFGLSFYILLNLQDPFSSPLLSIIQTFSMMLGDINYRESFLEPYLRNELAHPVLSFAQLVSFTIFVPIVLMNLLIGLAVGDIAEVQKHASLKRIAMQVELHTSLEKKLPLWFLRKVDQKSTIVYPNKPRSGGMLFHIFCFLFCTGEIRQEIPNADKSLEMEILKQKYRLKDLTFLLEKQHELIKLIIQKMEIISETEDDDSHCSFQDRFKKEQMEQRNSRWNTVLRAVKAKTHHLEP

[6] = biological target: Kappa-type opioid receptor (Homo sapiens) (UniProt P41145); details: Compound concentration 10.0 uM
Sequence of Kappa-type opioid receptor (Homo sapiens) (P41145 whole entry): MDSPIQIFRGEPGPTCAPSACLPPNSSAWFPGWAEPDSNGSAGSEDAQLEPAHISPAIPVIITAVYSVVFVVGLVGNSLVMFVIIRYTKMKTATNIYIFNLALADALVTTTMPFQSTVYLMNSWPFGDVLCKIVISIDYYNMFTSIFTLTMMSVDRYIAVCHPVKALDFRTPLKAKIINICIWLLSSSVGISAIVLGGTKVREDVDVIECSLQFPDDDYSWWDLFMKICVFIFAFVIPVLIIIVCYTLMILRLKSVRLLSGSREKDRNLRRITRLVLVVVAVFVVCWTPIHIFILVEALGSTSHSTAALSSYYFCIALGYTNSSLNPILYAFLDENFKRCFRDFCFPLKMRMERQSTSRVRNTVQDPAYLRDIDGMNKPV

[7] = biological target: 5-hydroxytryptamine receptor 3A (Homo sapiens) (UniProt P46098); details: Compound concentration 10.0 uM
[8] = biological target: Transient receptor potential cation channel subfamily V member 4 (Homo sapiens, UniProt Q9HBA0); experiment: TRP selectivity screen (TRPV4)
[9] = biological target: Transient receptor potential cation channel subfamily V member 1 (Homo sapiens, UniProt Q8NER1); experiment: TRP selectivity screen (TRPV1)
[10] = biological target: Muscarinic acetylcholine receptor M5 (Homo sapiens) (UniProt P08912); details: Compound concentration 10.0 uM
Sequence of Muscarinic acetylcholine receptor M5 (Homo sapiens) (P08912 whole entry): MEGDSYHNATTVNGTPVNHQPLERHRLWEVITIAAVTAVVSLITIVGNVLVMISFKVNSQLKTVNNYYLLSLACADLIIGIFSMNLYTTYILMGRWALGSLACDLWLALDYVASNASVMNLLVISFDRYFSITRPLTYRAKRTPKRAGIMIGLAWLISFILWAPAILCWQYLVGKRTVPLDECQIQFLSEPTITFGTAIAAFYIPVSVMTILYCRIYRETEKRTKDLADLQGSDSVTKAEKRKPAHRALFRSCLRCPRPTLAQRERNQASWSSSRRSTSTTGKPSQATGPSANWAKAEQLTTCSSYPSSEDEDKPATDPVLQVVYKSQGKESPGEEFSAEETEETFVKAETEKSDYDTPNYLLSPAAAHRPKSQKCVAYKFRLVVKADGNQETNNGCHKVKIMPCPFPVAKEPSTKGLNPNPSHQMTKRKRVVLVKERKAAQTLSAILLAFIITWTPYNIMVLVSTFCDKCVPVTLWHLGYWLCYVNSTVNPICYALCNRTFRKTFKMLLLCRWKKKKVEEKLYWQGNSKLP

[11] = biological target: Beta-2 adrenergic receptor (Homo sapiens) (UniProt P07550); details: Compound concentration 10.0 uM
Sequence of Beta-2 adrenergic receptor (Homo sapiens) (P07550 whole entry, looked up): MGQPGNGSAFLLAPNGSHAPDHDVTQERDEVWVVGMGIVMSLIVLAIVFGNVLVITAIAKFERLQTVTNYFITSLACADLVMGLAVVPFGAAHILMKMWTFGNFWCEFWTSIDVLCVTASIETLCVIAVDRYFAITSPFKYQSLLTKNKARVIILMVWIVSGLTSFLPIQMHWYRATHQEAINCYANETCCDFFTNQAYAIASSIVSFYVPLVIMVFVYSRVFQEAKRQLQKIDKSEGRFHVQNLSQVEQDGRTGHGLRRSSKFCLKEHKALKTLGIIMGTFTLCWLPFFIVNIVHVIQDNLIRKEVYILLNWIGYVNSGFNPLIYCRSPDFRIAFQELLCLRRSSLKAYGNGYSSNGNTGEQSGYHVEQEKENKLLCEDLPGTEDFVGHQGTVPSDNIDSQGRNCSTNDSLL

[12] = biological target: T2, Alpha-1A adrenergic receptor (Homo sapiens) (UniProt P35348); details: Compound concentration 10.0 uM
T2 sequence (whole entry): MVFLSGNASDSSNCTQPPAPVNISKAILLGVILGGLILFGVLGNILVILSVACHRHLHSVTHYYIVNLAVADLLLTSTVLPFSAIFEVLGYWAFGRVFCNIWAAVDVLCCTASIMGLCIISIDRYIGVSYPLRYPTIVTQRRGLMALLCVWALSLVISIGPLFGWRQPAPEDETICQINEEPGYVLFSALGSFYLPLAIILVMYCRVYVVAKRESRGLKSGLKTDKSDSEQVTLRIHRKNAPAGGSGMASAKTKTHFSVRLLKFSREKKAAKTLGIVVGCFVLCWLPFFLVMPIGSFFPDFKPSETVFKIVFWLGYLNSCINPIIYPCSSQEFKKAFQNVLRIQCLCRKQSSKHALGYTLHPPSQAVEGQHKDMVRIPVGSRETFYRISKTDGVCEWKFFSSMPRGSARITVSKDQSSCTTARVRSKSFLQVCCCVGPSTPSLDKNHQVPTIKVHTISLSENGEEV

[13] = biological target: Short transient receptor potential channel 6 (Homo sapiens, UniProt Q9Y210); experiment: TRP selectivity screen (TRPC6)
Rattus norvegicus = species on record: Rattus norvegicus; details: Compound concentration 10.0 uM
[14] = biological target: Beta-1 adrenergic receptor (Homo sapiens) (UniProt P08588); details: Compound concentration 10.0 uM
Sequence of Beta-1 adrenergic receptor (Homo sapiens) (P08588 whole entry, looked up): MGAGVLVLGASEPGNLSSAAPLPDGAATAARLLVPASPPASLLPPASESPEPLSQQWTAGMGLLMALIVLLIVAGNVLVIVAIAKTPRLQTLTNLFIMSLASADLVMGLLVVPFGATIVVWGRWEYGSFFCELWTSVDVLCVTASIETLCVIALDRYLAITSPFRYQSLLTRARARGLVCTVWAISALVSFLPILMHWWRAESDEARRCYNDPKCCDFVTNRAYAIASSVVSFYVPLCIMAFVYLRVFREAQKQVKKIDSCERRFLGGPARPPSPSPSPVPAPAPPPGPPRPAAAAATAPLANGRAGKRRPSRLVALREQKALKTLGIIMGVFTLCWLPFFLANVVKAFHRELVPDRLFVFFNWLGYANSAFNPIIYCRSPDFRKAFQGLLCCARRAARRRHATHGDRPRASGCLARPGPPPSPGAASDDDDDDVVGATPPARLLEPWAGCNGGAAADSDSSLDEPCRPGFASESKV

[15] = biological target: D(3) dopamine receptor (Homo sapiens) (UniProt P35462); details: Compound concentration 10.0 uM
[16] = biological target: Alpha-1B adrenergic receptor (Homo sapiens) (UniProt P35368); details: Compound concentration 10.0 uM
Sequence of Alpha-1B adrenergic receptor (Homo sapiens) (P35368 whole entry): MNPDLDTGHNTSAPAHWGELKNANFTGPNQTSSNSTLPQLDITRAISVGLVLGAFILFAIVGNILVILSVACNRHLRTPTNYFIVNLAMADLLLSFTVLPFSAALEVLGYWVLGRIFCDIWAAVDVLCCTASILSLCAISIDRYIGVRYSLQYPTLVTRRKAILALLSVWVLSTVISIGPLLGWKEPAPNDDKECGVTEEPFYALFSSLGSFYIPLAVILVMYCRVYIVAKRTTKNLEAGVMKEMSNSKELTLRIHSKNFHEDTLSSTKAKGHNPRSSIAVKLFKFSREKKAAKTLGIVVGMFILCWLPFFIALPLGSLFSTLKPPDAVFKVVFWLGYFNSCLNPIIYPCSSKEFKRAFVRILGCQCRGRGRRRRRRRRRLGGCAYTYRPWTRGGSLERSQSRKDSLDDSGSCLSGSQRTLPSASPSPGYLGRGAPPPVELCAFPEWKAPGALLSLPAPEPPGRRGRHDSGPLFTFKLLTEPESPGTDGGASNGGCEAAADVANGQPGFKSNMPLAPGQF

[17] = biological target: Sodium-dependent serotonin transporter (Homo sapiens) (UniProt P31645); details: Compound concentration 10.0 uM
Histamine H2 receptor = Histamine H2 receptor (Homo sapiens, UniProt P25021); details: Compound concentration 10.0 uM
Sequence of Histamine H2 receptor (P25021 whole entry): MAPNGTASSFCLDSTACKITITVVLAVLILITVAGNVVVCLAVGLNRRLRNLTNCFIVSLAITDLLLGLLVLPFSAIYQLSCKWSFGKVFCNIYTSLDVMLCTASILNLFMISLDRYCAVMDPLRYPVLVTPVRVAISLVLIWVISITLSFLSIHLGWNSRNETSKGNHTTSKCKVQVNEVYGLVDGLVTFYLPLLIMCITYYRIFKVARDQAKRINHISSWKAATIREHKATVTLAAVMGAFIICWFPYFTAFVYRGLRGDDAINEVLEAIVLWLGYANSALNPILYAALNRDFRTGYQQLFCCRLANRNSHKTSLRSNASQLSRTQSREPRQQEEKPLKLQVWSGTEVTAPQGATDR

[18] = biological target: D(4) dopamine receptor (Homo sapiens) (UniProt P21917); details: Compound concentration 10.0 uM
[19] = biological target: T3, Alpha-2C adrenergic receptor (Homo sapiens) (UniProt P18825); details: Compound concentration 10.0 uM
T3 sequence (whole entry): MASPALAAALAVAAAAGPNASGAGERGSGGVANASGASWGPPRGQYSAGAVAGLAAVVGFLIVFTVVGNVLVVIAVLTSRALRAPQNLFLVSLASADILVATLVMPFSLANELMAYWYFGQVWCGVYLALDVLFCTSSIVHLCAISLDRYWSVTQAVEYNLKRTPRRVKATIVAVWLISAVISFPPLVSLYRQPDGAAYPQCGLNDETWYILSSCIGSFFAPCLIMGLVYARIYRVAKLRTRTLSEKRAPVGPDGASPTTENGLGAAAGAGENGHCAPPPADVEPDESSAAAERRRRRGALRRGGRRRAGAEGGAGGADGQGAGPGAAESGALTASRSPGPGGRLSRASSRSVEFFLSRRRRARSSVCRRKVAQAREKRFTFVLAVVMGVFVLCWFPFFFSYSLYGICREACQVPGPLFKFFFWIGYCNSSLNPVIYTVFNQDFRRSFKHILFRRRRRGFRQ

[20] = biological target: T4, Muscarinic acetylcholine receptor M4 (Homo sapiens) (UniProt P08173); details: Compound concentration 10.0 uM
T4 sequence (whole entry): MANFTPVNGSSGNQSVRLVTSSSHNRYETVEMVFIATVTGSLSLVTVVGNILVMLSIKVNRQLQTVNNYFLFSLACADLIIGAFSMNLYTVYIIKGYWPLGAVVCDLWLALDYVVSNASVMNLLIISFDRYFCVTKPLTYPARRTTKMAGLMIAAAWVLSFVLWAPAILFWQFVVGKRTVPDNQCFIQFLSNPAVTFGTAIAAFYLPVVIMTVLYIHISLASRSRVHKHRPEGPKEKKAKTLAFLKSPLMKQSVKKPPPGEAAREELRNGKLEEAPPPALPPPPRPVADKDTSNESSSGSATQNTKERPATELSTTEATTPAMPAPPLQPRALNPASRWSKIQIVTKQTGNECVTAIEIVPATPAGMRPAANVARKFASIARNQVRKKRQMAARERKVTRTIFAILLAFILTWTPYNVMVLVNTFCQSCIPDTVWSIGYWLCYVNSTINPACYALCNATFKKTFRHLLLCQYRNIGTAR

Sequence of Short transient receptor potential channel 5 (Q9UL62 whole entry): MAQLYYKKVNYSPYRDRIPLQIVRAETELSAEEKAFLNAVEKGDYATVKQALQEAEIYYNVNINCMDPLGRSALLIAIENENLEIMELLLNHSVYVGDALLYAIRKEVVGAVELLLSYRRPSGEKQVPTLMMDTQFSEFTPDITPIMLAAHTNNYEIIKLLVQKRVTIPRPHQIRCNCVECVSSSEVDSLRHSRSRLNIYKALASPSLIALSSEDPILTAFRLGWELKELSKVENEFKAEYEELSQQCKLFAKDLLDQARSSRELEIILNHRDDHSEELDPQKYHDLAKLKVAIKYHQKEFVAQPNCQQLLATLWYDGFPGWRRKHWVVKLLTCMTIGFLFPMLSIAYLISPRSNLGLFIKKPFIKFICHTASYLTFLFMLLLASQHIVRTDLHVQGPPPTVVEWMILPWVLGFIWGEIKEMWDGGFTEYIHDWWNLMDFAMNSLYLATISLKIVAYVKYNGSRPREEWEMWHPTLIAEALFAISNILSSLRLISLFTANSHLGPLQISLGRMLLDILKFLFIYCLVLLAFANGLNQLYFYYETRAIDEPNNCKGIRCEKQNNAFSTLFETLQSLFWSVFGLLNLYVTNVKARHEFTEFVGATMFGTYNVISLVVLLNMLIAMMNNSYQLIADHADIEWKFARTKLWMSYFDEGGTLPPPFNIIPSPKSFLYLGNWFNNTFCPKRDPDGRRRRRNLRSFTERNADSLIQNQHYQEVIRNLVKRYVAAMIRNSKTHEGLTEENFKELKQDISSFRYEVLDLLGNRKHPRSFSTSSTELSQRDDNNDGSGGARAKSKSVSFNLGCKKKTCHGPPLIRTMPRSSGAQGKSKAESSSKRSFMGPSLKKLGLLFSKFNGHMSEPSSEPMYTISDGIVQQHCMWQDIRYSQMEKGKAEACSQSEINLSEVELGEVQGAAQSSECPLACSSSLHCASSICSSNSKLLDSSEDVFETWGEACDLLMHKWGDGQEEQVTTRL

SMILES | inhibition [1] [%] | IC50 [2] | inhibition [3] [%] | inhibition [4] [%] | IC50 [5] | inhibition [6] [%] | inhibition [7] [%] | IC50 [8] | IC50 [9] | inhibition [10] [%] | inhibition [11] [%] | inhibition [12] [%] | IC50 [13] | inhibition (Rattus norvegicus) [%] | inhibition [14] [%] | inhibition [15] [%] | inhibition [16] [%] | inhibition [17] [%] | inhibition (Histamine H2 receptor) [%] | inhibition [18] [%] | further results
COc1cc(N[C@@H]2CCCC[C@]2(O)C(F)(F)F)ccc1F [BAY-9897] | 10.3 | 10 µM (not active) | 14.4 | 18.5 | > 25 µM (not active) | 10.5 | 11.6 | > 25 µM (not active) | > 25 µM (not active) | -5.5 | 22.2 | 2.69 | > 30 µM (not active) | -1.71 | -0.24 | -0.75 | 0.41 | 15.6 | 89 | 6.32 | inhibition [19]: -3.92%; inhibition [20]: -3.95%
O[C@]1(C(F)(F)F)CCCC[C@H]1Nc1ccc(F)cc1 [BAY-390] | 6.05 | 5.6 µM (not active) | 21.4 | 8.3 | 0.016 µM (active) | 9.94 | 39 | > 25 µM (not active) | > 25 µM (not active) | 10.4 | 7.94 | -8.22 | > 25 µM (not active) | 2.79 | 20.2 | -6.61 | 8.7 | -0.01 | -1.07 | -4.08 | inhibition [19]: 4.19%; inhibition [20]: 13.9%
